Test results taken from ChEMBL document CHEMBL1240370, “Effects of immunomodulatory and organism-associated molecules on the permeability of an in vitro blood-brain barrier model to amphotericin B and fluconazole” (Antimicrob Agents Chemother, 2010).

Assays:
Format in all cases: ADME, cell-based, Bos taurus
Details in all cases: cattle, c6, 24 h
[1] = Permeability across BBMEC cocultured with rat C6 cell BBB model after 24 hrs in presence of 0.1 ug/ml TNF
[2] = Permeability across BBMEC co-cultured with rat C6 cell BBB model after 24 hrs in presence of 0.01 ug/ml interleukin-1
[3] = Permeability across BBMEC cocultured with rat C6 cell BBB model after 24 hrs in presence of 0.1 ug/ml interleukin-2
[4] = Permeability across BBMEC cocultured with rat C6 cell BBB model after 24 hrs in presence of 1 ug/ml lipopolysaccharide
[5] = Permeability across BBMEC cocultured with rat C6 cell BBB model after 24 hrs in presence of 0.1 ug/ml lipopolysaccharide
[6] = Permeability across BBMEC cocultured with rat C6 cell BBB model after 24 hrs in presence of 0.1 ug/ml lipoteichoic acid
[7] = Permeability across BBMEC cocultured with rat C6 cell BBB model after 24 hrs in presence of 1 ug/ml Dexamethasone
[8] = Permeability across BBMEC cocultured with rat C6 cell BBB model after 24 hrs in presence of 0.1 ug/ml Dexamethasone
[9] = Permeability across BBMEC cocultured with rat C6 cell BBB model after 24 hrs in presence of 0.01 ug/ml tacrolimus-506
[10] = Permeability across BBMEC cocultured with rat C6 cell BBB model after 24 hrs in presence of 0.1 ug/ml tacrolimus-506
[11] = Permeability across BBMEC cocultured with rat C6 cell BBB model after 24 hrs in presence of 0.01 ug/ml TNF

Measured: permeability

OC(Cn1cncn1)(Cn1cncn1)c1ccc(F)cc1F [FLUCONAZOLE]
permeable: all assays above
